pIC50: −log10 of the molar value. Like-named read-outs stand apart in the source and are kept apart here.
Columns and labels:
[1] = target: recombinant poly(ADP-ribose) polymerase 2 (PARP2) (Homo sapiens, UniProt Q9UGN5); assay: PARP2 chemiluminescent assay; type: biochemical; settings: inhibition of PARP2 enzyme activity, chemiluminescence
MDA-MB-436 cells = assay: Growth inhibition assay against BRCA mutant human breast cancer MDA-MB-436 cell line (CCK-8); type: cell-based; settings: Homo sapiens, MDA-MB-436, […], proliferation of MDA-MB-436 cells, 7 days
[2] = target: T1, recombinant poly(ADP-ribose) polymerase 1 (PARP1) (Homo sapiens (Human), UniProt P09874); assay: biochemical
PDE3A = PDE3A (Homo sapiens (Human), UniProt Q14432); assay: PDE3A fluorescence polarization (FP) assay; type: biochemical; settings: PDE3A enzyme activity, FAM-cAMP substrate
Protocol: A PDE3A fluorescence polarization (FP) assay in a multi-step format was performed using black, round bottom 384-well plates (Corning, 4514). The testing compounds were serially diluted from stock solutions to 11 concentrations with a 3-fold dilution factor using DMSO. Fifty nl of compound dilutions was mixed with 5 μl of reaction buffer (10 mM Tris-HCl, pH 7.2, 10 mM MgCl2, 0.05% NaN3, 0.1% phosphate-free BSA) containing 0.2 μM FAM-cAMP (BPS, 60200) and 2 nM PDE3A (Sino Biological, 11908-H20B1) enzyme, and incubated for 60 min at 25° C. Afterwards, 15 μl binding agent mixture (Molecular Devices, R8124) was added to each well and the plate was incubated for 60 min at 25° C. The plate was loaded to a BMG PHERAstar FSX to read Fluorescence Polarization (FP) values at a setting of: Ex: 485 nm and Em: 520 nm. Emission light intensity with polarizers parallel (Emi) and emission light intensity with polarizers perpendicular (Emi) were recorded. The Polarization (mP) values were calculated using the following formula: mP=(SignalEml−SignalEm⊥)/(SignalEml+SignalEm⊥).
• 1) The inhibition % of a compound dose is calculated as:
[formula] • wherein mPMin and mPMax refer to the polarization readings in the condition of substrate only and substrate+enzyme, respectively. • 2) The IC50 values were calculated from non-linear curve fitting using following regression equation using a commercial curve fitting software GraphPad Prism 9.2.0.
[formula] • wherein, X refers to Log of compound concentration and Y refers to % Inhibition.

[3] = target: T1, recombinant poly(ADP-ribose) polymerase 1 (PARP1)

Sequence of recombinant poly(ADP-ribose) polymerase 2 (PARP2) (Q9UGN5 whole entry, looked up): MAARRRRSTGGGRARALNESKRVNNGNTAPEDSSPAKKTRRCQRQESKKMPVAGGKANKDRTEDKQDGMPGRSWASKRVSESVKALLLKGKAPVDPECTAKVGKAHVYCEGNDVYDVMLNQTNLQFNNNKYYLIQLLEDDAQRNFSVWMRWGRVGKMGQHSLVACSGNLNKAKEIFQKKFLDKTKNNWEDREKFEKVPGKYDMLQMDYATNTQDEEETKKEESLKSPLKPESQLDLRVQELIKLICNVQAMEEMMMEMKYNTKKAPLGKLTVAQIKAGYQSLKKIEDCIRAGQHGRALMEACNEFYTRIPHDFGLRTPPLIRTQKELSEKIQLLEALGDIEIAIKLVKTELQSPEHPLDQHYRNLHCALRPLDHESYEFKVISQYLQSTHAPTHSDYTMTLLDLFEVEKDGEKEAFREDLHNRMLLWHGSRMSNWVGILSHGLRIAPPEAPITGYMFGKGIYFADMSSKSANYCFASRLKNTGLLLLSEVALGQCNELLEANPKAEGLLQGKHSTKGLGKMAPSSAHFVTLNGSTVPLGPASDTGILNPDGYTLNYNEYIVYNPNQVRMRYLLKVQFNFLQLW
T1 sequence (P09874 whole entry): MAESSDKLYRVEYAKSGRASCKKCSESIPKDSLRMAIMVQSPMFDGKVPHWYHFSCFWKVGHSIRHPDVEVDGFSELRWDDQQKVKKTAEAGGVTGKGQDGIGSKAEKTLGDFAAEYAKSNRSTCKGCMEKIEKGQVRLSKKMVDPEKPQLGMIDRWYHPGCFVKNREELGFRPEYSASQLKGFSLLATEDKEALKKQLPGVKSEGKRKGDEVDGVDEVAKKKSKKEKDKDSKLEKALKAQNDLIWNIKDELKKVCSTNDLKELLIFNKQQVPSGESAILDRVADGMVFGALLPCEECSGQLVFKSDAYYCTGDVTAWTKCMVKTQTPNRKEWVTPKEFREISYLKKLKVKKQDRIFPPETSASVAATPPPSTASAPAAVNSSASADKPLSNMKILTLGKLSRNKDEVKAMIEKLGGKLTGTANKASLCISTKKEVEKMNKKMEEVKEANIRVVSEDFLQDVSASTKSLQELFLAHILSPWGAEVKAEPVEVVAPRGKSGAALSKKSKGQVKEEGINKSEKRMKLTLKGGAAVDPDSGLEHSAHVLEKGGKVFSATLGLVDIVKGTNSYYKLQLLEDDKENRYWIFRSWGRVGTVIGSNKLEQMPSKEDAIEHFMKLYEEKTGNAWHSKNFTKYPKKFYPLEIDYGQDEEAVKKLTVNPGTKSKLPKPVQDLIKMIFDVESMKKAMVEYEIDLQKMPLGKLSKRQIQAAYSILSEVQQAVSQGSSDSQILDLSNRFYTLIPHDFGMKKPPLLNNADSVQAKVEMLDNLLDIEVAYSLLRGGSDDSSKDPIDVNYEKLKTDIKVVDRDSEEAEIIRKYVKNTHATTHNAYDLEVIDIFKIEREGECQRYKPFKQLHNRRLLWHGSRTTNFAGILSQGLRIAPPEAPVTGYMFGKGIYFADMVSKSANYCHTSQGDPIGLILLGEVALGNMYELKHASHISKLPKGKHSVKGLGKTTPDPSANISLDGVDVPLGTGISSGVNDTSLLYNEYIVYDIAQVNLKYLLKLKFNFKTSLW
Sequence of PDE3A (Q14432 whole entry): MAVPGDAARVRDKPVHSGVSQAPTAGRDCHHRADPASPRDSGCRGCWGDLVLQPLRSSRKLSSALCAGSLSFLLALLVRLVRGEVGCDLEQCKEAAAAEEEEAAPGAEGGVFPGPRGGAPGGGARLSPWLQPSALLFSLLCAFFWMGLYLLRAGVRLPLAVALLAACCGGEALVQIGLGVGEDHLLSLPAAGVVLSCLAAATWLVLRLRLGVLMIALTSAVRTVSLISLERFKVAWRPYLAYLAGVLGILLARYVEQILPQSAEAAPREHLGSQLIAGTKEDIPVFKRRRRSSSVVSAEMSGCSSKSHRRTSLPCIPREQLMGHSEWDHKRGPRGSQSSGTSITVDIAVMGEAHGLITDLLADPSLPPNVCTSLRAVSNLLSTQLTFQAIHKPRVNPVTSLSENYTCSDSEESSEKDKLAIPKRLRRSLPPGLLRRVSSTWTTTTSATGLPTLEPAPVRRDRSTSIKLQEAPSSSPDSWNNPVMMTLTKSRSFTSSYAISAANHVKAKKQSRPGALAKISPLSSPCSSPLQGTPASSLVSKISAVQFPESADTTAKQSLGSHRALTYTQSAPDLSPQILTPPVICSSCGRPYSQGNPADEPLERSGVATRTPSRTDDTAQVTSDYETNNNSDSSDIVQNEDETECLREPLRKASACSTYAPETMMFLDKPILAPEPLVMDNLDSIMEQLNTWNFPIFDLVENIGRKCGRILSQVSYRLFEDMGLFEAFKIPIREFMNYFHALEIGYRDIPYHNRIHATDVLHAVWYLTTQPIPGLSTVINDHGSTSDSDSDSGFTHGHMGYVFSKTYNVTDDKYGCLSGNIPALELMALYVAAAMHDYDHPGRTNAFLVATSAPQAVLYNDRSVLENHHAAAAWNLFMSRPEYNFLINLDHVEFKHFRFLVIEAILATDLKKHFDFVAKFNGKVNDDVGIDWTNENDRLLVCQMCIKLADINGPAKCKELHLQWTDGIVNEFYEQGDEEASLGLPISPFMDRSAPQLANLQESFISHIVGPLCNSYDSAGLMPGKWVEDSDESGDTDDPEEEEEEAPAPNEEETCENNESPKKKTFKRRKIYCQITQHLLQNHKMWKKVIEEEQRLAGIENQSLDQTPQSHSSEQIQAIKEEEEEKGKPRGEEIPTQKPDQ

| Compound | IC50 [1] | pIC50 (MDA-MB-436 cells) | pIC50 [2] | pIC50 (PDE3A) | pIC50 [3] |
| --- | --- | --- | --- | --- | --- |
| CNC(=O)c1ccc(N2CCN(Cc3ccc4c(c3)[nH]c(=O)c3ccsc34)CC2)c(C)n1 [Example 1, 7-((4-(2-methyl-6-(methylcarbamoyl)pyridin-3-yl)piperazin-1-yl)methyl)thieno[3,2-c]quinolin-4(5H)-one] | 78 nM | – | – | – | – |
| CNC(=O)c1ccc(N2CCN(Cc3ccc4c(c3)[nH]c(=O)c3cscc34)CC2)c(C)n1 [Example 3, 7-((4-(2-methyl-6-(methylcarbamoyl)pyridin-3-yl)piperazin-1-yl)methyl)thieno[3,4-c]quinolin-4(5H)-one] | 18.3 nM | – | – | – | – |
| CNC(=O)c1ccc(N2CCN(Cc3ccc4c(c3)[nH]c(=O)c3sccc34)CC2)c(C)n1 [Example 5, 7-((4-(2-methyl-6-(methylcarbamoyl)pyridin-3-yl)piperazin-1-yl)methyl)thieno[2,3-c]quinolin-4(5H)-one] | 10.1 nM | – | – | – | – |
| CNC(=O)c1ccc(N2CCN(Cc3ccc4c(c3)[nH]c(=O)c3cnn(C)c34)CC2)c(C)n1 [Example 8, 7-((4-(2-methyl-6-(methylcarbamoyl)pyridin-3-yl)piperazin-1-yl)methyl)-1-methyl-1,5-dihydro-4H-pyrazolo[4,3-c]quinolin-4-one] | 54.9 nM | – | – | – | – |
| CNC(=O)c1ccc(N2CCN(Cc3cc(F)c4c(c3)[nH]c(=O)c3cscc34)CC2)c(C)n1 [Example 21, 7-((4-(2-methyl-6-(methylcarbamoyl)pyridin-3-yl)piperazin-1-yl)methyl)-9-fluorothieno[3,4-c]quinolin-4(5H)-one] | 13.3 nM | – | – | – | – |
| CNC(=O)c1ccc(N2CCN(Cc3cc(F)c4c(c3)[nH]c(=O)c3sccc34)CC2)c(C)n1 [Example 38, 9-fluoro-7-((4-(2-methyl-6-(methylcarbamoyl)pyridin-3-yl)piperazin-1-yl)methyl)thieno[2,3-c]quinolin-4(5H)-one] | 16.9 nM | 8.43 | – | – | – |
| CNC(=O)c1ccc(C2CCN(Cc3ccc4c([nH]c(=O)c5occc54)c3F)CC2)c(F)n1 [Example 109, 7-((4-(2-fluoro-6-(methylcarbamoyl)pyridin-3-yl)piperidin-1-yl)methyl)-6-fluorofuro[2,3-c]quinolin-4(5H)-one] | 5370 nM | 8.29 | 9.08 | – | – |
| O=C(NCC(F)F)c1ccc(N2CCN(Cc3ccc4c([nH]c(=O)c5occc54)c3F)CC2)c(F)n1 [Example 147, 6-fluoro-7-((4-(2-fluoro-6-(2,2-difluoroethylcarbamoyl)pyridin-3-yl)piperazin-1-yl)methyl)furo[2,3-c]quinolin-4(5H)-one] | 2400 nM | 8.70 | 9.25 | 4.96 | – |
| CNC(=O)c1ccc(C2=CCN(Cc3ccc4c([nH]c(=O)c5c(C)cnn54)c3F)CC2)cn1 [Example 152, 6-fluoro-3-methyl-7-((6-methylcarbamoyl-3′,6′-dihydro-[3,4′-bipyridin]-1′(2′H)-yl)methyl)pyrazolo[1,5-a]quinoxalin-4(5H)-one] | > 1110 nM | 7.71 | – | < 4.60 | – |
| CNC(=O)c1ccc(C2=CCN(Cc3ccc4c([nH]c(=O)c5c(C)cnn54)c3F)CC2)c(F)n1 [Example 165, 6-fluoro-7-((2-fluoro-6-methylcarbamoyl-3′,6′-dihydro-[3,4′-bipyridin]-1′(2′H)-yl)methyl)-3-methylpyrazolo[1,5-a]quinoxalin-4(5H)-one] | > 3330 nM | 8.56 | – | – | 9.59 |
| CNC(=O)c1ccc(C2=CCN(Cc3ccc4c([nH]c(=O)c5c(F)cnn54)c3F)CC2)c(F)n1 [Example 197, 7-((2-fluoro-6-methylcarbamoyl-3′,6′-dihydro-[3,4′-bipyridin]-1′(2′H)-yl)methyl)-3,6-difluoropyrazolo[1,5-a]quinoxalin-4(5H)-one] | 774 nM | 8.92 | – | – | 9.82 |
